Data as given in patent publication US20050282781A1, “Compositions of stable bioactive metabolites of docosahexaenoic (DHA) and eicosapentaenoic (EPA) acids” (priority 2004, published 2005).

Legend:
[1] = tested on: increased 5-HT release activity in MDMA-treated rats; assay: MDMA-withdrawal increased 5-HT release; format: in vivo, rat; conditions: post-treatment in MDMA-treated rats
Description: EPA or DHA would not be truly effective for this purpose. There is evidence that presynaptic serotonergic, but not dopaminergic, mechanisms are involved in the enactogen-like discriminative stimulus properties of MDMA. MDMA increases the number of rat brain 5-hydroxytryptamine 5-HT1A receptors and induces increased release of 5-HT from presynaptic terminals. The MDMA-withdrawal syndrome includes this increased 5-HT release activity in rats.

[2] = Oral EPA or DHA to albino rats, blood levels of DBPs and benzoic acid by HPLC and GC-MS; format: in vivo
Method: Oral administration of EPA to albino rats and tracking the blood level of DBPs by HPLC were conducted. […] Cells and plasma were separated by centrifugation and extracted separately with methanol before (BH) and after acidic (HCl) hydrolysis (AH). These extracts were subjected to HPLC, when DBPs (3-hydroxy- and 3,8-dihydroxydibenzo-α-pyrones) so formed were tracked and estimated. FIGS. 2A and 2B show the turnover of EPA into 3,8-dihydroxydibenzo-α-pyrone.
Blood samples (2.5 ml) were collected from albino rats (200-220 grams, b.w.) by retro-orbital puncture, in heparinized tubes and centrifuged (3000 rpm) for 5 min. The supernatant (plasma, 0.4 ml) was collected and extracted with methanol (5 ml×3), at 60° C. by sonication for 10 min each. The combined methanolic extract was filtered and evaporated in vacuo. The residue so obtained was subjected to HPLC and GC-MS (as TMS derivatives) analyses. The presence of both 3-hydroxy-(str. 1, Scheme-II) and 3,8-dihydroxy-dibenzo-α-pyrone (str. 2, Scheme-II) was detected. Thus, the two DBPs are the normal metabolites of the albino rats. Their normal concentrations (control value) in the experimental rat blood were estimated at 0.170±0.052 μg/ml (str. 1, Scheme-II) and 0.100±0.023 μg/ml (str. 2, Scheme-II).
In the EPA treatment experiment to the above animals, EPA (25 mg, in propylene glycol, 0.5 ml) per rat was fed through the oral route. […]

active learning in rats = assay: Active learning (learning acquisition), number of trials to reach criterion; format: in vivo, rat; conditions: p.o. once daily 45 min before trial for 4 days, mean ± SEM
Description: In the learning acquisition paradigm, in the control group, the number of shocked and unshocked trials required to reach the criterion of 10 correct conditional responses, were 14.33 and 43.70, respectively.

open-field test in rats = assay: Open-field test (anxiogenic test model); format: in vivo, rat; set-up: Immobility: unit not given here
Method: This was determined according to a previously described method (Bhattacharya et al. 1998).
MDMA (5 and 10 mg/Kg, i.p.) produced a dose-related decrease in the number of squares crossed and rears, with concomitant immobility and increased defecation; these effects are qualitatively similar to those induced by yohimbine (2 mg/Kg, i.p. in 0.9% saline as the vehicle). DBPs (1 and 2, 1:1 mixture 10 mg/Kg, p.o. day-1, for 7 days) were administered prior to MDMA or yohimbine administration, on the 7th day, 1 hour after the last DBPs administration (p.o.). Similar anti-anxiogenic effects were observed on pretreatment of MDMA, followed by DBPs.

[3] = tested on: pylorus ligated albino rats; assay: Anti-ulcerogenic effect in pylorus ligated rats (ulcer index, gastric juice); format: in vivo; conditions: 10 mg/ml
Description: Mixture of DBPs (1:1, 1 and 2, Scheme-II), on'the other hand, increased the contents of individual and the total carbohydrates and also the total carbohydrate/protein ratio in the gastric juice. The ratio of the total carbohydrate/protein was taken as the index of the mucin activity.
Another essential criterion of determining the status of mucosal resistance/barrier is the state of mucus secretion. DBPs increase not only the mucosal cellular mucus, but also secrete more dissolved mucus in the gastric juice as evidenced by their effects on gastric juice carbohydrates and on the increased carbohydrate/protein ratio.

[4] = L-DOPA-sparing by singlet oxygen quenching (Rose Bengal plates); format: biochemical; conditions: for Percent inhibition of L-DOPA oxidation (mean ± SEM): 30 min exposure to 1O2, Pi buffer pH 7.2
Description: A comparative study of the antioxidant defence provided by the three compounds, DBPs, EPA and DHA, was made. The reason for selection of this test (antioxidant-profile) is, that, agents that can regulate systemic production and interactions of reactive oxygen species, like singlet oxygen, superoxide radical and hydroxyl radical, can provide surveillance umbrella to living organisms against ‘oxidative stress’.
The singlet oxygen was generated on Rose Bengal-coated glass plates by illuminating with a 150-W spot-light at a distance of 30 cm, through water to filter infra-red light (Ghosal, S. and Bhattacharya, S. K. (1996). Antioxidant defence by shilajit, Indian J. Chem., 35B, 127-132).

mice = assay: Forced swimming immobility (behavioral despair), anti-stress; format: in vivo; conditions: in these doses (50 mg/Kg p.o. × 4 days); statistically insignificant
Method: Rodents when forced to swim in a restricted place, from which they cannot escape, become immobile after an initial period of vigorous activity. The observed immobility signified behavioral despair, resembling a state of mental depression. Behavioral depression is a common consequence of stress. The significant anti-stress effects of DBPs (1 and 2, Scheme-II), was assessed by the considerable reduction in the period of immobility in the test compound treated mice.

[5] = 10 mg/Kg p.o. for 7 days, prior to MDMA or yohimbine administration

SMILES: CC/C=C\C/C=C\C/C=C\C/C=C\C/C=C\CCCC(=O)O [EPA, cis-5,8,11,14,17-Eicosapentaenoic acid]
- prevention of MDMA-withdrawal increased 5-HT release [1]: not
- blood level of 3,8-(OH)2-DBP (2) versus control ([2]; after 24 h of EPA treatment): higher than that of the control
- blood level of 3,8-(OH)2-DBP (2) versus control ([2]; after 72 h of EPA treatment): came down to control level
- Number of trials to reach criterion, Shocked trials (active learning in rats; dose 2.5 mg/ml): 13.82 ± 1.04
- Number of trials to reach criterion, Unshocked trials (active learning in rats; dose 2.5 mg/ml): 40.11 ± 1.88
- Number of trials to reach criterion, Shocked trials (active learning in rats; dose 5.0 mg/ml): 12.11 ± 2.01
- Number of trials to reach criterion, Unshocked trials (active learning in rats; dose 5.0 mg/ml): 38.14 ± 1.92
- Faecal pellets (open-field test in rats; [5]): 6.8 ± 3.0
- Immobility (open-field test in rats; [5]): 70.1 ± 5.3
- Rears (open-field test in rats; [5]): 12.2 ± 4.8
- Squares crossed (open-field test in rats; [5]): 116.5 ± 9.9
- reversal of the anxiety-inducing potential of MDMA (open-field test in rats; Table 5 model): only weak reversal effect
- anti-ulcerogenic effect [3]: only weak anti-ulcerogenic effects
- antioxidant effect (1O2 quenching) ([4]; 0.1-0.4 mM): only weak antioxidant effect
- Percent inhibition of L-DOPA oxidation (mean ± SEM) ([4]; L-DOPA:test compound 1:0.1 mM): 7.7 ± 1.3%
- Percent inhibition of L-DOPA oxidation (mean ± SEM) ([4]; L-DOPA:test compound 1:0.4 mM): 11.3 ± 3.2%
- anti-stress response (mice): very weak anti-stress response
